The structures appear in SMILES notation.

By IC50 is commonly meant the concentration that gives 50% inhibition.

T1 sequence (P00746 26-253): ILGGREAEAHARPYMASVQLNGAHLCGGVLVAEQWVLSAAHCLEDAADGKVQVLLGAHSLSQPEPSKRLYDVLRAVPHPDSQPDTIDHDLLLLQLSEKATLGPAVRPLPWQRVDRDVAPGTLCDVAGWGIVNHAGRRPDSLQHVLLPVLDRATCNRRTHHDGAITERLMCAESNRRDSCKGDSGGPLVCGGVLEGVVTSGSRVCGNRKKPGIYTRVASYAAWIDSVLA

This test addresses T1, factor D (Homo sapiens, UniProt P00746).
T1 construct: made in house; host or cells: E. coli
The experiment in a line: factor D inhibition assay of Biological Example 2. It counts as biochemical.
Turning to `COCc1cc(COc2ccccc2CC(=O)O)cc(-c2cccc([C@H](C)N)c2)c1` [Example 120-K], it took 0.19 µM to reach half-maximal inhibition (IC50).
As for `C[C@@H](N)c1cccc(-c2cc(C#Cc3ccn(C)n3)cc(COc3ccccc3CC(=O)O)c2)c1F` [Example 218-G, (R)-2-(2-((3′-(1-Aminoethyl)-2′-fluoro-5-((1-methyl-1H-pyrazol-3-yl)ethynyl)-[1,1′-biphenyl]-3-yl)methoxy)phenyl)acetic acid], the IC50 amounted to 0.006 µM.
In turn, `C[C@@H](N)c1cccc(-c2cc(COc3ccccc3CC(=O)O)cc(N(C)CC3CCCO3)c2)c1F` (stereo partly shown) [Example 216-G] gave an IC50 of 0.007 µM.
With `NCc1cccc(-c2ccc3c(c2)C(Oc2ccccc2CC(=O)O)CC3)c1` (racemic) [Example 162, (±)-2-(2-((6-(3-(Aminomethyl)phenyl)-2,3-dihydro-1H-inden-1-yl)oxy)phenyl)acetic acid] the figure was 0.002 µM; with `NC1(c2cccc(-c3cccc(C(=O)Nc4ccccc4CC(=O)O)c3)c2)CC1` [Example 92, 2-(2-(3′-(1-Aminocyclopropyl)-[1,1′-biphenyl]-3-ylcarboxamido)phenyl)acetic acid], 8.47 µM; with `C[C@@H](N)c1cccc(-c2cc(COc3ccccc3CC(=O)O)cc(OCC3CCCN3)c2)c1` (stereo partly drawn) [Example 267, 2-(2-((3′-((R)-1-aminoethyl)-5-(pyrrolidin-2-ylmethoxy)-[1,1′-biphenyl]-3-yl)methoxy)phenyl)acetic acid], 0.039 µM.
For the compound `N[C@H](CO)c1cccc(-c2cc(COc3ccccc3CC(=O)O)c3c(c2)OCO3)c1` [Example 255, (S)-2-(2-((6-(3-(1-amino-2-hydroxyethyl)phenyl)benzo[d][1,3]dioxol-4-yl)methoxy)phenyl)acetic acid], it took 0.009 µM to reach half-maximal inhibition (IC50).
As to `NCc1cc(F)cc(-c2cccc(C(=O)Nc3ccc(Cl)cc3CC(=O)O)n2)c1` [Example 21-P], inhibition was half-maximal at 0.118 µM (IC50).
With `CCOC(=O)Cc1ccccc1NC(=O)c1cc(NC[C@H]2CCCO2)cc(-c2cc(F)cc(CN)c2)c1` [Example 85, (R)-Ethyl 2-(2-(3′-(aminomethyl)-5′-fluoro-5-(((tetrahydrofuran-2-yl)methyl)amino)-[1,1′-biphenyl]-3-ylcarboxamido)phenyl)acetate] the figure was 0.709 µM; with `CCC[C@@H](N)c1cccc(-c2cc(COc3ccccc3CC(=O)O)cc(N3CCOCC3)c2)c1F` [Example 198-C, (R)-2-(2-((3′-(1-Aminobutyl)-2′-fluoro-5-morpholino-[1,1′-biphenyl]-3-yl)methoxy)phenyl)acetic acid], 0.199 µM; with `CCC[C@@H](N)c1cccc(-c2cccc(COc3ccccc3CC(=O)O)c2)c1F` [Example 195-B, (R)-2-(2-((3′-(1-Aminobutyl)-2′-fluoro-[1,1′-biphenyl]-3-yl)methoxy)phenyl)acetic acid], 0.107 µM.
With `N[C@H](CO)c1cccc(-c2cc(CCCF)cc(COc3ccccc3CC(=O)O)c2)c1` [Example 272, (S)-2-(2-((3′-(1-amino-2-hydroxyethyl)-5-(3-fluoropropyl)-[1,1′-biphenyl]-3-yl)methoxy)phenyl)acetic acid] the figure was 0.01 µM.
With `C[C@@H](N)c1cccc(-c2cc(COc3ccccc3CC(=O)O)c3cn[nH]c3c2)c1F` [Example 211-C] the figure was 0.009 µM.
In turn, `NCc1cccc(-c2cccc(COc3ccccc3CC(=O)O)n2)c1` [Example 160, 2-(2-((6-(3-(aminomethyl)phenyl)pyridin-2-yl)methoxy)phenyl)acetic acid] returned an IC50 of 1.14 µM.
With `NCc1cc(F)cc(-c2cc(NC[C@@H]3CCCO3)cc(C(=O)Nc3ccccc3CC(=O)O)c2)c1` [Example 79-F] the figure was 0.006 µM.
With `CC(C)OCc1cc(COc2ccccc2CC(=O)O)cc(-c2cccc([C@@H](C)N)c2F)c1` [Example 120-O] the figure was 0.024 µM.
With `NC(c1ccccc1)c1cccc(-c2cccc(COc3ccccc3CC(=O)O)c2)c1` (stereo not shown) [Example 196-C] the figure was 0.313 µM.
For `CC(O)c1cc(COc2ccccc2CC(=O)O)cc(-c2cccc([C@H](C)N)c2F)c1` (stereo partly shown) [Example 120-J], the IC50 was 0.023 µM.
`CC(=O)Nc1cc(C(=O)Nc2ccccc2CC(=O)O)cc(-c2cc(F)cc(CN)c2)c1` [Example 67-B, 2-(2-(5-Acetamido-3′-(aminomethyl)-5′-fluoro-[1,1′-biphenyl]-3-ylcarboxamido)phenyl)acetic acid] registered an IC50 of 0.03 µM.
With `NCc1cccc(-c2cccc(COc3ccccc3CC(=O)O)c2)c1O` [Example 144-C, 2-(2-((3′-(Aminomethyl)-2′-hydroxy-[1,1′-biphenyl]-3-yl)methoxy)phenyl)acetic acid] the figure was 0.056 µM.
With `NCc1cccc(-c2ccc(F)c(COc3ccccc3CC(=O)O)c2)c1` [Example 166, 2-(2-((3′-(Aminomethyl)-4-fluoro-[1,1′-biphenyl]-3-yl)methoxy)phenyl)acetic acid] the figure was 0.023 µM.
`NCc1cc(F)cc(-c2cc(NC[C@H]3CCCO3)cc(C(=O)Nc3ccccc3CC(=O)O)c2)c1` [Example 14-D] returned an IC50 of 0.021 µM.
With `Cc1cc(-c2cccc([C@H](N)CO)c2)cc(COc2ccccc2CC(=O)O)n1` [Example 185, (S)-2-(2-((4-(3-(1-Amino-2-hydroxyethyl)phenyl)-6-methylpyridin-2-yl)methoxy)phenyl)acetic acid] the figure was 0.024 µM; with `C[C@@H](N)c1cccc(-c2cc(COc3ccccc3CC(=O)O)cc(CN3CCOCC3)c2)c1F` [Example 216-AE], 0.053 µM.
With `C[C@@H](N)c1cccc(-c2cc(COc3ccccc3CC(=O)O)cc(OC[C@H]3CCCO3)c2)n1` [Example 235, 2-(2-((3-(6-((R)-1-aminoethyl)pyridin-2-yl)-5-(((R)-tetrahydrofuran-2-yl)methoxy)benzyl)oxy)phenyl)acetic acid] the figure was 0.034 µM; with `C[C@@H](N)c1cccc(-c2cc(COc3ccccc3CC(=O)O)cc(NCc3ccccn3)c2)c1F` [Example 216-T], 0.009 µM.
With `C[C@@H](N)c1cccc(-c2cc(N)c(F)c(COc3ccccc3CC(=O)O)c2)c1F` [Example 221 a), (R)-2-(2-((5-amino-3′-(1-aminoethyl)-2′,4-difluoro-[1,1′-biphenyl]-3-yl)methoxy)phenyl)acetic acid], the IC50 worked out at 0.006 µM.
With `NCc1cccc(-c2cc(COc3ccccc3CC(=O)O)c(F)c(NCC3CCCO3)c2)c1` (racemic) [154-C b), (±)-2-(2-((3′-(aminomethyl)-4-fluoro-5-(((tetrahydrofuran-2-yl)methyl)amino)-[1,1′-biphenyl]-3-yl)methoxy)phenyl)acetic acid] the figure was 0.004 µM.
`Cc1ccc(S(=O)(=O)n2ncc3c(COc4ccccc4CC(=O)O)cc(-c4cccc(CN)c4)cc32)cc1` [Example 178, 2-(2-((6-(3-(Aminomethyl)phenyl)-1-tosyl-1H-indazol-4-yl)methoxy)phenyl)acetic acid] showed an IC50 of 0.002 µM.
With `COC(C)c1cc(COc2ccccc2CC(=O)O)cc(-c2cccc([C@@H](C)N)c2F)c1` (stereo partly shown) [Example 120-D] the figure was 0.093 µM.
With `NCc1cccc(-c2ccc(C(F)(F)F)c(COc3ccccc3CC(=O)O)c2)c1` [Example 165, 2-(2-((3′-(Aminomethyl)-4-(trifluoromethyl)-[1,1′-biphenyl]-3-yl)methoxy)phenyl)acetic acid] the figure was 0.021 µM.
With `NCc1cccc(-c2cc(COc3ccccc3CC(=O)O)cc(NCC3CCCO3)c2F)c1` (racemic) [Example 156-B, (±)-2-(2-((3′-(Aminomethyl)-6-fluoro-5-(((tetrahydrofuran-2-yl)methyl)amino)-[1,1′-biphenyl]-3-yl)methoxy)phenyl)acetic acid] the figure was 0.002 µM.
Take `NC(CCF)c1cccc(-c2cccc(COc3ccccc3CC(=O)O)c2)c1` (stereo not shown) [Example 278-B, 2-(2-((3′-(1-amino-3-fluoropropyl)-[1,1′-biphenyl]-3-yl)methoxy)phenyl)acetic acid]: the IC50 was found to be 0.49 µM.
With `COc1cc(COc2ccccc2CC(=O)O)cc(-c2cccc([C@@H](C)N)c2F)c1` [Example 214-I] the figure was 0.007 µM; with `NCc1cccc(-c2c[nH]c(C(=O)Nc3ccccc3CC(=O)O)n2)c1` [Example 47, 2-(2-(4-(3-(Aminomethyl)phenyl)-1H-imidazole-2-carboxamido)phenyl)acetic acid], 1.93 µM; with `N[C@H](CCO)c1cccc(-c2cc(COc3ccccc3CC(=O)O)cc(NCC3CC3)c2)c1` [Example 94-C, (R)-2-(2-((3′-(1-amino-3-hydroxypropyl)-5-((cyclopropylmethyl)amino)-[1,1′-biphenyl]-3-yl)methoxy)phenyl)acetic acid], 0.027 µM.
With `CNc1cc(COc2ccccc2CC(=O)O)cc(-c2cccc([C@H](N)CO)c2)c1` [Example 131, (S)-2-(2-((3′-(1-Amino-2-hydroxyethyl)-5-(methylamino)-[1,1′-biphenyl]-3-yl)methoxy)phenyl)acetic acid] the figure was 0.018 µM; with `CC[C@@H](N)c1cccc(-c2cccc(COc3ccccc3CC(=O)O)c2)c1` [Example 190-C], 1.21 µM; with `N[C@H](CCO)c1cccc(-c2cccc(COc3ccccc3CC(=O)O)c2)c1F` [Example 190-J], 0.013 µM.
With `NCc1cccc(-c2ccnc(COc3ccccc3CC(=O)O)c2)c1F` [Example 182, 2-(2-((4-(3-(Aminomethyl)-2-fluorophenyl)pyridin-2-yl)methoxy)phenyl)acetic acid] the figure was 0.008 µM; with `NCc1cccc(-c2ccc3c(c2)C(Oc2ccccc2CC(=O)O)CCO3)c1` (single isomer, unassigned) [177 b) (tr = 8.8 min), (−) or (+)-2-(2-((6-(3-(aminomethyl)phenyl)chroman-4-yl)oxy)phenyl)acetic acid], 0.18 µM.
Regarding `CNCc1cccc(-c2cccc(COc3ccccc3CC(=O)O)c2)c1` [Example 288, 2-(2-((3′-((methylamino)methyl)-[1,1′-biphenyl]-3-yl)methoxy)phenyl)acetic acid], the IC50 is 3.43 µM.
With `COC(C)c1cc(COc2ccccc2CC(=O)O)cc(-c2cccc([C@H](N)CO)c2)c1` (stereo partly shown) [Example 120-E] the figure was 0.017 µM.

For the origin of these results see patent US20160145247A1, “Aminomethyl-Biaryl Derivatives Complement Factor D inhibitors and uses thereof” (NOVARTIS AG, priority 2013, published 2016).
